Source: patent publication US7297705B2, “Azaindolylalkylamine derivatives as 5-hydroxytryptamine-6 ligands” (Wyeth, priority 2001, dated 2007)

Target: T1, human cloned 5-HT6 receptors (Homo sapiens, UniProt P50406)
T1 construct: expressed in transfected cells; host or cells: Hela cells
Assay: 5-HT6 binding affinity, [3H]-LSD displacement on membranes of Hela cells expressing human cloned 5-HT6 receptors
Conditions: not given
Method: Comparative Evaluation of 5-HT6 Binding Affinity of Test Compounds
The affinity of test compounds for the serotonin 5-HT6 receptor is evaluated in the following manner. Cultured Hela cells expressing human cloned 5-HT6 receptors are harvested and centrifuged at low speed (1,000×g) for 10.0 min to remove the culture media. The harvested cells are suspended in half volume of fresh physiological phosphate buffered saline solution and recentrifuged at the same speed. This operation is repeated. The collected cells are then homogenized in ten volumes of 50 mM Tris.HCl (pH 7.4) and 0.5 mM EDTA. The homogenate is centrifuged at 40,000×g for 30.0 min and the precipitate is collected. The obtained pellet is resuspended in 10 volumes of Tris.HCl buffer and recentrifuged at the same speed. The final pellet is suspended in a small volume of Tris.HCl buffer and the tissue protein content is determined in aliquots of 10-25 μl volumes. Bovine Serum Albumin is used as the standard in the protein determination according to the method described in Lowry et al., J. Biol. Chem., 193:265 (1951). The volume of the suspended cell membranes is adjusted to give a tissue protein concentration of 1.0 mg/ml of suspension. The prepared membrane suspension (10 times concentrated) is aliquoted in 1.0 ml volumes and stored at −70° C. until used in subsequent binding experiments.
The reaction is allowed to proceed in the dark for 120 min at room temperature, at which time, the bound ligand-receptor complex is filtered off on a 96 well unifilter with a Packard Filtermate® 196 Harvester. The bound complex caught on the filter disk is allowed to air dry and the radioactivity is measured in a Packard TopCount® equipped with six photomultiplier detectors, after the addition of 40.0 μl Microscint®-20 scintillant to each shallow well. The unifilter plate is heat-sealed and counted in a PackardTopCount® with a tritium efficiency of 31.0%.
Binding in the presence of varying concentrations of test compound is expressed as a percentage of specific binding in the absence of test compound. The results are plotted as log % bound versus log concentration of test compound. […] A linear regression line of data points is plotted, from which the IC50 value is determined and the Ki value is determined based upon the following equation: Ki=IC50/(1+L/KD) where L is the concentration of the radioactive ligand used and KD is the dissociation constant of the ligand for the receptor, both expressed in nM.

T1 sequence (P50406 whole entry): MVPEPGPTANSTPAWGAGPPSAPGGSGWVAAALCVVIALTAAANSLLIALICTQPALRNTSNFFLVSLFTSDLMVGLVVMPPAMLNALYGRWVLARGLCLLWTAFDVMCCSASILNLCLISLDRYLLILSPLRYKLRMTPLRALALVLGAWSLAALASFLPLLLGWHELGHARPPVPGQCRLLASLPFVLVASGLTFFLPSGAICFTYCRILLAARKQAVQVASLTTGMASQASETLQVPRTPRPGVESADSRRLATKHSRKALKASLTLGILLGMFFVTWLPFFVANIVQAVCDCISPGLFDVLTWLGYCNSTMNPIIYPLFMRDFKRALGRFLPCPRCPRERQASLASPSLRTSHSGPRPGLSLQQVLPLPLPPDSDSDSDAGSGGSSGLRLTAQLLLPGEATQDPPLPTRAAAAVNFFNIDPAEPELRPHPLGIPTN

| SMILES | Ki [nM] |
| --- | --- |
| NCCc1cn(S(=O)(=O)c2c(Cl)nc3sccn23)c2cccnc12 [Example 11] | 0.8 |
| NCCc1cn(S(=O)(=O)c2cccc(C(F)(F)F)c2)c2cccnc12 [Example 13] | 5 |
| NCCc1cn(S(=O)(=O)c2ccc(C(F)(F)F)cc2Cl)c2cccnc12 [Example 14] | 15 |
| NCCc1cn(S(=O)(=O)c2ccc(F)c(F)c2)c2cccnc12 [Example 15] | 16 |
| COc1cccc(S(=O)(=O)n2cc(CCN)c3ncccc32)c1 [Example 17] | 2.9 |
| NCCc1cn(S(=O)(=O)c2cnc3sccn23)c2cccnc12 [Example 18] | 1.6 |
| NCCc1cn(S(=O)(=O)c2cccc(F)c2)c2cccnc12 [Example 20] | 3.3 |
| Cc1cccc(S(=O)(=O)n2cc(CCN)c3ncccc32)c1 [Example 22] | 2.4 |
| NCCc1cn(S(=O)(=O)c2cccc(Cl)c2Cl)c2cccnc12 [Example 23] | 2.1 |
| NCCc1cn(S(=O)(=O)c2ccccc2F)c2cccnc12 [Example 24] | 5.3 |
| NCCc1cn(S(=O)(=O)c2c(Cl)nc3sc(Cl)cn23)c2cccnc12 [Example 26] | 7.3 |
| NCCc1cn(S(=O)(=O)c2c(Cl)nc3sccn23)c2ccncc12 [Example 35, 2-{[1-(6-Chloroimidazo[2,1-b]thiazol-5-yl)sulfonyl]-1H-pyrrolo[3,2-c]pyridin-3-yl)ethylamine] | 15.7 |
| NCCc1cn(S(=O)(=O)c2cnc3sccn23)c2ccncc12 [Example 39] | 47 |
| NCCc1cn(S(=O)(=O)c2ccc(Cl)s2)c2ccncc12 [Example 43] | 47.5 |
| NCCc1cn(S(=O)(=O)c2cccc(Cl)c2Cl)c2ccncc12 [Example 47] | 32.7 |
| COc1cccc(S(=O)(=O)n2cc(CCN)c3cccnc32)c1 [Example 68, 2-[1-(3-Methoxybenzenesulfonyl)-1H-pyrrolo[2,3-b]pyridin-3-yl]ethylamine] | 33.3 |
| NCCc1cn(S(=O)(=O)c2ccc3ccccc3c2)c2ncccc12 [Example 82] | 12 |
| NCCc1cn(S(=O)(=O)c2ccc(N)cc2)c2ncccc12 [Example 83] | 2.4 |
| COc1ccc(S(=O)(=O)n2cc(CCN)c3cccnc32)cc1 [Example 84] | 74.6 |
| N#Cc1ccccc1S(=O)(=O)n1cc(CCN)c2cccnc21 [Example 87] | 79 |
| NCCc1cn(S(=O)(=O)c2ccccc2C(F)(F)F)c2ncccc12 [Example 89] | 38.3 |
| NCCc1cn(S(=O)(=O)c2cccc(C(F)(F)F)c2)c2ncccc12 [Example 90] | 21 |
| CC(C)c1ccc(S(=O)(=O)n2cc(CCN)c3cccnc32)cc1 [Example 93] | 39.3 |
| CN(C)CCc1cn(S(=O)(=O)c2ccccc2)c2ncccc12 [Example 94] | 40 |
| COc1cccc(S(=O)(=O)n2cc(CCN(C)C)c3cccnc32)c1 [Example 97] | 24.6 |
| COc1ccc(S(=O)(=O)n2cc(CCN(C)C)c3cccnc32)cc1OC [Example 99] | 76.6 |

| SMILES | Ki [nM] |
| --- | --- |
| CN(C)CCc1cn(S(=O)(=O)c2ccccc2C(F)(F)F)c2ncccc12 [Example 103] | 38 |
| CN(C)CCc1cn(S(=O)(=O)c2cccc(C(F)(F)F)c2)c2ncccc12 [Example 104] | 29.3 |
| Cc1ccc(C)c(S(=O)(=O)n2cc(CCN)c3cccnc32)c1 [Example 108] | 23.7 |
| NCCc1cn(S(=O)(=O)c2ccc(F)c(Cl)c2)c2ncccc12 [Example 109] | 61.3 |
| NCCc1cn(S(=O)(=O)c2ccc(F)cc2Cl)c2ncccc12 [Example 110] | 38.3 |
| Cc1ccc(S(=O)(=O)n2cc(CCN)c3cccnc32)cc1Cl [Example 111] | 3.6 |
| Cc1ccc(F)cc1S(=O)(=O)n1cc(CCN)c2cccnc21 [Example 112] | 38.7 |
| Cc1cc(S(=O)(=O)n2cc(CCN)c3cccnc32)c(C)cc1Cl [Example 114] | 17.7 |
| NCCc1cn(S(=O)(=O)c2cccc(F)c2)c2ncccc12 [Example 116] | 13.4 |
| NCCc1cn(S(=O)(=O)c2ccc(F)c(F)c2)c2ncccc12 [Example 118] | 89.3 |
| NCCc1cn(S(=O)(=O)c2ccccc2Cl)c2ncccc12 [Example 120] | 27 |
| NCCc1cn(S(=O)(=O)c2cccc(Cl)c2)c2ncccc12 [Example 121] | 6 |
| NCCc1cn(S(=O)(=O)c2ccc(Cl)cc2)c2ncccc12 [Example 122] | 50 |
| NCCc1cn(S(=O)(=O)c2ccc(Cl)s2)c2ncccc12 [Example 129] | 11.7 |
| NCCc1cn(S(=O)(=O)c2ccc(Br)s2)c2ncccc12 [Example 130] | 8.5 |
| NCCc1cn(S(=O)(=O)c2cc(Cl)c(Cl)s2)c2ncccc12 [Example 131] | 19.7 |
| NCCc1cn(S(=O)(=O)c2cc(Br)c(Br)s2)c2ncccc12 [Example 133] | 10.7 |
| NCCc1cn(S(=O)(=O)c2sc(Cl)cc2Br)c2ncccc12 [Example 134] | 29 |
| CN(C)CCc1cn(S(=O)(=O)c2ccc(F)cc2Cl)c2ncccc12 [Example 144] | 56.3 |
| Cc1cc(S(=O)(=O)n2cc(CCN(C)C)c3cccnc32)c(C)cc1Cl [Example 146] | 31.7 |
| CN(C)CCc1cn(S(=O)(=O)c2ccccc2F)c2ncccc12 [Example 147] | 47.3 |
| CN(C)CCc1cn(S(=O)(=O)c2cccc(F)c2)c2ncccc12 [Example 148] | 28 |
| CN(C)CCc1cn(S(=O)(=O)c2ccc(Cl)s2)c2ncccc12 [Example 151] | 13 |
| CN(C)CCc1cn(S(=O)(=O)c2cc(Cl)sc2Cl)c2ncccc12 [Example 152] | 53.7 |
| CN(C)CCc1cn(S(=O)(=O)c2c(Cl)nc3ccccn23)c2ncccc12 [Example 153] | 57.3 |
| NCCc1cn(S(=O)(=O)c2c(Cl)nc3sccn23)c2ncccc12 [Example 154] | 7.4 |

Same assay, conditions: [3H]-LSD 3.0 nM, 120 min at room temperature, Ki=IC50/(1+L/KD); read-out: 5-HT6 Binding Ki

| SMILES | Ki [nM] |
| --- | --- |
| NCCc1cn(S(=O)(=O)c2ccccc2Cl)c2cccnc12 [Example 1, 2-[1-(2-Clorobenzensulfonyl)-1H-pyrrolo[3,2-b]pyridin-3-yl]ethylamine] | 5 |

Same assay, conditions: read-out: 5-HT6 Binding Ki

| SMILES | Ki [nM] |
| --- | --- |
| NCCc1cn(S(=O)(=O)c2ccc(Cl)s2)c2cccnc12 [Example 5] | 2 |
| NCCc1cn(S(=O)(=O)c2cccc(Cl)c2)c2cccnc12 [Example 16] | 1.6 |
| NCCc1cn(S(=O)(=O)c2ccccc2)c2cccnc12 [Example 19] | 4.5 |
| NCCc1cn(S(=O)(=O)c2cccc(Br)c2)c2cccnc12 [Example 25] | 3.5 |
| NCCc1cn(S(=O)(=O)c2cccc(Cl)c2)c2ccncc12 [Example 40] | 110 |
| NCCc1cn(S(=O)(=O)c2cccc(F)c2)c2ccncc12 [Example 41] | 170 |
| COc1cccc(S(=O)(=O)n2cc(CCN)c3cnccc32)c1 [Example 42] | 198 |
| NCCc1cn(S(=O)(=O)c2ccccc2)c2ccncc12 [Example 44] | 164 |
| Cc1cccc(S(=O)(=O)n2cc(CCN)c3cnccc32)c1 [Example 45] | 152 |
| NCCc1cn(S(=O)(=O)c2cccc(C(F)(F)F)c2)c2ccncc12 [Example 46] | 173 |
| NCCc1cn(S(=O)(=O)c2ccc(F)cc2F)c2ncccc12 [Example 71] | 113 |
| NCCc1cn(S(=O)(=O)c2ccccc2)c2ncccc12 [Example 80] | 43 |
| COc1ccc(S(=O)(=O)n2cc(CCN)c3cccnc32)cc1OC [Example 85] | 106 |
| CC(C)(C)c1ccc(S(=O)(=O)n2cc(CCN)c3cccnc32)cc1 [Example 91] | 114 |
| CN(C)CCc1cn(S(=O)(=O)c2ccc3ccccc3c2)c2ncccc12 [Example 96] | 19.6 |
| COc1ccc(Cl)cc1S(=O)(=O)n1cc(CCN)c2cccnc21 [Example 113] | 186 |
| NCCc1cn(S(=O)(=O)c2ccccc2F)c2ncccc12 [Example 115] | 39.3 |
| NCCc1cn(S(=O)(=O)c2cc(Cl)sc2Cl)c2ncccc12 [Example 132] | 52 |
| NCCc1cn(S(=O)(=O)c2cc(Br)c(Cl)s2)c2ncccc12 [Example 135] | 16.3 |
| NCCc1cn(S(=O)(=O)c2c(Cl)sc(Cl)c2Br)c2ncccc12 [Example 136] | 40 |
| NCCc1cn(S(=O)(=O)c2c(Cl)nc3ccccn23)c2ncccc12 [Example 137] | 25 |
| NCCc1cn(S(=O)(=O)c2cccc3nonc23)c2ncccc12 [Example 141] | 42.3 |
| NCCc1cn(S(=O)(=O)c2cccc3nsnc23)c2ncccc12 [Example 142] | 69.7 |
| NCCc1cn(S(=O)(=O)c2c(Cl)nc3sc(Cl)cn23)c2ncccc12 [Example 158] | 90.7 |
